Results as given in US20240360151A1 (SANOFI, priority 2023, published 2024).

How the values were obtained:
NLRP3 inflammasome = target: T1, NLRP3 inflammasome (Homo sapiens, UniProt Q96P20); assay: IL-1β secretion assay (NLRP3 IC50) in LPS-primed, nigericin-activated THP-1 cells, HTRF; format: cell-based; settings: monocytic THP-1 cells; LPS 10 ng/mL 3 h priming, then compound + nigericin 10 μM 2 h; relative IC50, 10 concentrations, geometric mean
T1 construct: endogenous in cells; host or cells: THP-1 monocytic cells
T1 sequence (Q96P20 whole entry): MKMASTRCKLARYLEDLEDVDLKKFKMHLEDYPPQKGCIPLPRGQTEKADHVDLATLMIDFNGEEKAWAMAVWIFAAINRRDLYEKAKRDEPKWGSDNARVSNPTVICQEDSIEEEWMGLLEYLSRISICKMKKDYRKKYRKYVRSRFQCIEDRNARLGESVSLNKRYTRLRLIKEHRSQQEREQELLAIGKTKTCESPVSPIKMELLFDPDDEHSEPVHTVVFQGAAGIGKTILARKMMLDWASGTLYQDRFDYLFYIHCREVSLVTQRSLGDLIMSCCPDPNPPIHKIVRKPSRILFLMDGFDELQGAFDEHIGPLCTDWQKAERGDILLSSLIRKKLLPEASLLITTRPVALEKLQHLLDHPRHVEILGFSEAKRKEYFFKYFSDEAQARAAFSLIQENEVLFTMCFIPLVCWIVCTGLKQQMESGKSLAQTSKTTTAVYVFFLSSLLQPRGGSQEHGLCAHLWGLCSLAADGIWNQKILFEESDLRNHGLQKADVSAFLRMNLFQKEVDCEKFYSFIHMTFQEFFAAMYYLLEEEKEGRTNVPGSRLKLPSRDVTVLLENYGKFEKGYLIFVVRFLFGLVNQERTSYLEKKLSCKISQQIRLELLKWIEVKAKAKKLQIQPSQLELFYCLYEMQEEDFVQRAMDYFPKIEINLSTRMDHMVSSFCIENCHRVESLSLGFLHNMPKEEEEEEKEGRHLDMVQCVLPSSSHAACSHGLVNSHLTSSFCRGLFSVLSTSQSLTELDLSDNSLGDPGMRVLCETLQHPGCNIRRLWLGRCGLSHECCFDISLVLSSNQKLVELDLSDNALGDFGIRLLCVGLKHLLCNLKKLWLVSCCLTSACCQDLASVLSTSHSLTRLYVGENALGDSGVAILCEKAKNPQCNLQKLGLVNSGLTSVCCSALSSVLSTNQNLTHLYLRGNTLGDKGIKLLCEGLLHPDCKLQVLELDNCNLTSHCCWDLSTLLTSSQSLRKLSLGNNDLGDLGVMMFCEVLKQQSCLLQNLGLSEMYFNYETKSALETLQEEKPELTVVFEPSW
Summary of the method: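 IL-1β in supernatant read by HTRF after 2 h co-incubation of compound (0.1% DMSO, 10 concentrations, 1:3 series) with nigericin at 10 μM final, following 3 h LPS (10 ng/mL) priming of THP-1 monocytes at 37° C. Inhibition normalised to unactivated and no-compound controls; geometric-mean relative IC50 from 4-parameter logistic model.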

[1] = test system: NF-kB pathway (TNF-α secretion by THP-1 cells); assay: TNF-α secretion assay in LPS-stimulated THP-1 cells, Lumit immunoassay; format: cell-based, human; settings: Homo sapiens, THP-1, 3 h, monocytic THP-1 cells, LPS 10 ng/mL, relative IC50, 10 concentrations, geometric mean
Summary of the method: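 TNF-α release was quantified directly in the cell plate by Lumit immunoassay after a 3-h, 10 ng/mL LPS trigger of compound-treated THP-1 cells (RPMI, 5% FBS). Percent inhibition versus no-compound and unstimulated controls fed a 4-parameter logistic fit over 10 concentrations, giving geometric-mean relative IC50.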

Molecule `CN(C)C[C@H]1CCN(c2ccc(-c3c(O)cc(Cl)cc3Cl)nn2)C1` [Example 41, 3,5-dichloro-2-[6-[(3R)-3-[(dimethylamino)methyl]pyrrolidin-1-yl]pyridazin-3-yl]phenol] has an IC50 (NLRP3 inflammasome) of 0.252 µM and an IC50 [1] of over 10 µM.

`Oc1cc(Cl)cc(Cl)c1-c1ccc(N2CCC3(CC(O)C3)C2)nn1` (centres unmarked) [Example 42, 6-[6-(2,4-dichloro-6-hydroxy-phenyl)pyridazin-3-yl]-6-azaspiro[3.4]octan-2-ol] was tested, and the IC50 (NLRP3 inflammasome) was 0.134 µM and the IC50 [1] was over 10 µM.

In the case of `Cc1cc(O)c(-c2ccc(N3CCO[C@H](CO)C3)nn2)c(F)c1` [Example 45, 3-fluoro-2-[6-[(2S)-2-(hydroxymethyl)morpholin-4-yl]pyridazin-3-yl]-5-methyl-phenol], the IC50 (NLRP3 inflammasome) is reported as 0.281 µM and the IC50 [1] is reported as over 10 µM.

With `Oc1cc(Cl)cc(Cl)c1-c1ccc(N2CC3(CC(O)C3)C2)nn1` [Example 46, 2-[6-(2,4-dichloro-6-hydroxy-phenyl)pyridazin-3-yl]-2-azaspiro[3.3]heptan-6-ol] the IC50 (NLRP3 inflammasome) was 0.389 µM and the IC50 [1] was over 10 µM.

Work on `OC[C@@H]1CN(c2ccc(-c3c(O)cccc3Cl)nn2)CCO1` [Example 48, 3-chloro-2-[6-[(2S)-2-(hydroxymethyl)morpholin-4-yl]pyridazin-3-yl]phenol] yielded an IC50 (NLRP3 inflammasome) of 0.386 µM and an IC50 [1] of over 10 µM.

`OC[C@@H]1CN(c2ccc(-c3c(O)cccc3C(F)(F)F)nn2)CCO1` [Example 54, 2-[6-[(2S)-2-(hydroxymethyl)morpholin-4-yl]pyridazin-3-yl]-3-(trifluoromethyl) phenol] gave an IC50 (NLRP3 inflammasome) of 0.132 µM and an IC50 [1] of over 10 µM.

In the case of `CN1CC2(CCN(c3ccc(-c4c(O)cc(Cl)cc4Cl)nn3)CC2)C1` [Example 55, 3,5-dichloro-2-[6-(2-methyl-2,7-diazaspiro[3.5]nonan-7-yl)pyridazin-3-yl]phenol], the IC50 (NLRP3 inflammasome) is reported as 0.176 µM and the IC50 [1] is reported as over 10 µM.

`Cc1cccc(O)c1-c1ccc(N2CCO[C@H](CO)C2)nn1` [Example 56, 2-[6-[(2S)-2-(hydroxymethyl)morpholin-4-yl]pyridazin-3-yl]-3-methyl-phenol] gave an IC50 (NLRP3 inflammasome) of 0.111 µM and an IC50 [1] of over 10 µM.

For `CC(=O)NC[C@H]1CCCN(c2ccc(-c3c(O)cc(Cl)cc3Cl)nn2)C1` [Example 57, N-[[(3R)-1-[6-(2,4-dichloro-6-hydroxy-phenyl)pyridazin-3-yl]-3-piperidyl]methyl]acetamide], the IC50 (NLRP3 inflammasome) was 0.248 µM and the IC50 [1] was over 10 µM.

`CC(=O)NC[C@@H]1CCCN(c2ccc(-c3c(O)cc(Cl)cc3Cl)nn2)C1` [Example 58, N-[[(3S)-1-[6-(2,4-dichloro-6-hydroxy-phenyl)pyridazin-3-yl]-3-piperidyl]methyl]acetamide] was tested, and the IC50 (NLRP3 inflammasome) was 0.064 µM and the IC50 [1] was over 10 µM.

Molecule `Cc1cc(C(F)(F)F)cc(O)c1-c1ccc(N2CCCC2=O)nn1` [Example 61, 1-[6-[2-hydroxy-6-methyl-4-(trifluoromethyl)phenyl]pyridazin-3-yl]pyrrolidin-2-one] has an IC50 (NLRP3 inflammasome) of 0.09 µM and an IC50 [1] of over 10 µM.

`Cc1cc(C(F)(F)F)cc(O)c1-c1ccc(N2C[C@@H](O)CC2=O)nn1` [Example 62, (4S)-4-hydroxy-1-[6-[2-hydroxy-6-methyl-4-(trifluoromethyl)phenyl]pyridazin-3-yl]pyrrolidin-2-one] gave an IC50 (NLRP3 inflammasome) of 0.052 µM and an IC50 [1] of over 10 µM.

`Cc1cc(Cl)cc(O)c1-c1ccc(N2CCO[C@H](CO)C2)nn1` [Example 63, 5-chloro-2-[6-[(2S)-2-(hydroxymethyl)morpholin-4-yl]pyridazin-3-yl]-3-methyl-phenol] showed an IC50 (NLRP3 inflammasome) of 0.006 µM and an IC50 [1] of over 10 µM.

`Oc1cc(Cl)cc(Cl)c1-c1ccc(N2CC3(COC3)C2)nn1` [Example 64, 3,5-dichloro-2-[6-(2-oxa-6-azaspiro[3.3]heptan-6-yl)pyridazin-3-yl]phenol] was tested, and the IC50 (NLRP3 inflammasome) was 0.222 µM and the IC50 [1] was over 10 µM.

For `Cc1cc(C)c(-c2ccc(N3CC[C@@H](CO)C3)nn2)c(O)c1` [Example 65, 2-[6-[(3R)-3-(hydroxymethyl)pyrrolidin-1-yl]pyridazin-3-yl]-3,5-dimethyl-phenol], the IC50 (NLRP3 inflammasome) was 0.151 µM and the IC50 [1] was over 10 µM.

With `Oc1cc(Cl)cc(Cl)c1-c1ccc(N2CCC3(CC2)COC3)nn1` [Example 66, 3,5-dichloro-2-[6-(2-oxa-7-azaspiro[3.5]nonan-7-yl)pyridazin-3-yl]phenol] the IC50 (NLRP3 inflammasome) was 0.304 µM and the IC50 [1] was over 10 µM.

For `Cc1cc(C)c(-c2ccc(N3CCC[C@H](O)C3)nn2)c(O)c1` [Example 67, (3S)-1-[6-(2-hydroxy-4,6-dimethyl-phenyl)pyridazin-3-yl]piperidin-3-ol], the IC50 (NLRP3 inflammasome) was 0.306 µM and the IC50 [1] was over 10 µM.

`Cc1cc(C)c(-c2ccc(N3CCC[C@H](N)C3)nn2)c(O)c1` [Example 69, 2-[6-[(3S)-3-amino-1-piperidyl]pyridazin-3-yl]-3,5-dimethyl-phenol] was tested, and the IC50 (NLRP3 inflammasome) was 0.2 µM and the IC50 [1] was over 10 µM.

For `Cc1cc(C)c(-c2ccc(N3CC[C@@H](O)C3)nn2)c(O)c1` [Example 70, (3R)-1-[6-(2-hydroxy-4,6-dimethyl-phenyl)pyridazin-3-yl]pyrrolidin-3-ol], the IC50 (NLRP3 inflammasome) was 0.467 µM and the IC50 [1] was over 10 µM.

`Cc1cc(C)c(-c2ccc(N3CC[C@H](O)C3)nn2)c(O)c1` [Example 71, (3S)-1-[6-(2-hydroxy-4,6-dimethyl-phenyl)pyridazin-3-yl]pyrrolidin-3-ol] showed an IC50 (NLRP3 inflammasome) of 0.27 µM and an IC50 [1] of over 10 µM.

In the case of `CCc1cc(N2CCO[C@H](CO)C2)nnc1-c1ccc(C)cc1O` [Example 72, 2-[4-ethyl-6-[(2S)-2-(hydroxymethyl)morpholin-4-yl]pyridazin-3-yl]-5-methyl-phenol], the IC50 (NLRP3 inflammasome) is reported as 0.107 µM and the IC50 [1] is reported as over 10 µM.

In the case of `CCc1cc(N2CCO[C@H](CO)C2)nnc1-c1ccc(Cl)cc1O` [Example 73, 5-chloro-2-[4-ethyl-6-[(2S)-2-(hydroxymethyl)morpholin-4-yl]pyridazin-3-yl]phenol], the IC50 (NLRP3 inflammasome) is reported as 0.056 µM and the IC50 [1] is reported as over 10 µM.

`Cc1ccc(-c2nnc(N3CCO[C@H](CO)C3)cc2C(C)C)c(O)c1` [Example 74, 2-[6-[(2S)-2-(hydroxymethyl)morpholin-4-yl]-4-isopropyl-pyridazin-3-yl]-5-methyl-phenol] was tested, and the IC50 (NLRP3 inflammasome) was 0.411 µM and the IC50 [1] was over 10 µM.

`CC(C)c1cc(N2CCO[C@H](CO)C2)nnc1-c1ccc(Cl)cc1O` [Example 75, 5-chloro-2-[6-[(2S)-2-(hydroxymethyl)morpholin-4-yl]-4-isopropyl-pyridazin-3-yl]phenol] was tested, and the IC50 (NLRP3 inflammasome) was 0.183 µM and the IC50 [1] was 9.6 µM.

In the case of `Cc1ccc(-c2nnc(N3CCO[C@H](CO)C3)cc2C)c(O)c1` [Example 76, 2-[6-[(2S)-2-(hydroxymethyl)morpholin-4-yl]-4-methyl-pyridazin-3-yl]-5-methyl-phenol], the IC50 (NLRP3 inflammasome) is reported as 0.066 µM and the IC50 [1] is reported as 8.6 µM.

`Cc1ccc(-c2nnc(N3CCO[C@H](CO)C3)c3c2CCC3)c(O)c1` [Example 77, 2-[4-[(2S)-2-(hydroxymethyl)morpholin-4-yl]-6,7-dihydro-5H-cyclopenta[d]pyridazin-1-yl]-5-methyl-phenol] showed an IC50 (NLRP3 inflammasome) of 0.135 µM and an IC50 [1] of over 10 µM.

`OC[C@@H]1CN(c2nnc(-c3ccc(Cl)cc3O)c3c2CCC3)CCO1` [Example 78, 5-chloro-2-[4-[(2S)-2-(hydroxymethyl)morpholin-4-yl]-6,7-dihydro-5H-cyclopenta[d]pyridazin-1-yl]phenol] was tested, and the IC50 (NLRP3 inflammasome) was 0.436 µM and the IC50 [1] was over 10 µM.

`Cc1cc(C)c(-c2ccc(N3CC[C@H](CO)C3)nn2)c(O)c1` [Example 79, 2-[6-[(3S)-3-(hydroxymethyl)pyrrolidin-1-yl]pyridazin-3-yl]-3,5-dimethyl-phenol] showed an IC50 (NLRP3 inflammasome) of 0.285 µM and an IC50 [1] of 9.5 µM.
